Source: US11358949B2, “Carbamate and urea compounds as multikinase inhibitors” (ANGEX PHARMACEUTICAL, INC., priority 2017, dated 2022)

How the values were obtained:
DDR1 = DDR1 (Homo sapiens, UniProt Q08345); test: HotSpot Kinase Assay, DDR1
Procedure: (§1) Specifically, for each reaction, kinase and substrate were mixed in a pH 7.5 buffer containing 20 mM HEPES, 10 mM MgCl2, 1 mM EGTA [Ethylene glycol-bis(2-aminoethylether)-N,N,N′,N′-tetraacetic acid], 0.02% Brij35, 0.02 mg/mL BSA (Bovine Serum Albumin), 0.1 mM Na3VO4, 2 mM DTT, and 1% DMSO. Compounds were then added to each reaction mixture. After a 20-min incubation, ATP (Sigma-Aldrich) and [γ-^33P] ATP (PerkinElmer) were added at a final total concentration of 100 μM. Reactions were carried out at room temperature for 2 hours and spotted onto P81 ion exchange cellulose chromatography paper (Whatman). […] The percent remaining kinase activity relative to a vehicle-containing (DMSO) kinase reaction was calculated for each kinase/inhibitor pair. […] IC50 values were calculated using Prism 5 (GraphPad).

c-MER = molecular target: T1, c-MER (Homo sapiens, UniProt Q12866); test: HotSpot Kinase Assay, c-MER
T1 sequence (Q12866 21-999): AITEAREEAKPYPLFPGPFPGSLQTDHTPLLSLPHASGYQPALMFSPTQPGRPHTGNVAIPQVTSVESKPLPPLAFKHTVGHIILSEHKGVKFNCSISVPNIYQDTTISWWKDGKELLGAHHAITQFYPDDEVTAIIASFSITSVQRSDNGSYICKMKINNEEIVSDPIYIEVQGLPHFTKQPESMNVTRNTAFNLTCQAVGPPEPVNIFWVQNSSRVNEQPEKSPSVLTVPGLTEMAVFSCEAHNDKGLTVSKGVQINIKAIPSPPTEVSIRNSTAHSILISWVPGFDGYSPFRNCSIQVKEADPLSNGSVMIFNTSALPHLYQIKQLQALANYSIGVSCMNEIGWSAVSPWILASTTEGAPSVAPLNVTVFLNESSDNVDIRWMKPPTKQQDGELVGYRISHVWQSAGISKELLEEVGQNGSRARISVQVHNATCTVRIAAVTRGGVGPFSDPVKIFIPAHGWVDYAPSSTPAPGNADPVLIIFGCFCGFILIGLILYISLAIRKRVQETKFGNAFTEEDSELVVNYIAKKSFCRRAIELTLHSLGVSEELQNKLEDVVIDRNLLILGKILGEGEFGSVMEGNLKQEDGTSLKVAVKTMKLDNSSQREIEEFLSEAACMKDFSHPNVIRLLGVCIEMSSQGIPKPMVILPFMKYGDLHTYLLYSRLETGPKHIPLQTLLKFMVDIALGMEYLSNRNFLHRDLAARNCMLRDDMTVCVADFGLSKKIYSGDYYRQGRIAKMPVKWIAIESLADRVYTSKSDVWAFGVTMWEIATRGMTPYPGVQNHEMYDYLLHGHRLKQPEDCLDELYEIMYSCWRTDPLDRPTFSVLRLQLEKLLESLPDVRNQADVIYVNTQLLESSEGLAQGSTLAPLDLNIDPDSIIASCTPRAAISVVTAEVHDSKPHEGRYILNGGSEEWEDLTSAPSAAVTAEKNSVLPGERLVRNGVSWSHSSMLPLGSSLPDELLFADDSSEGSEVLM

AXL = molecular target: T2, AXL (Homo sapiens, UniProt P30530); test: HotSpot Kinase Assay, AXL
T2 sequence (P30530 26-894): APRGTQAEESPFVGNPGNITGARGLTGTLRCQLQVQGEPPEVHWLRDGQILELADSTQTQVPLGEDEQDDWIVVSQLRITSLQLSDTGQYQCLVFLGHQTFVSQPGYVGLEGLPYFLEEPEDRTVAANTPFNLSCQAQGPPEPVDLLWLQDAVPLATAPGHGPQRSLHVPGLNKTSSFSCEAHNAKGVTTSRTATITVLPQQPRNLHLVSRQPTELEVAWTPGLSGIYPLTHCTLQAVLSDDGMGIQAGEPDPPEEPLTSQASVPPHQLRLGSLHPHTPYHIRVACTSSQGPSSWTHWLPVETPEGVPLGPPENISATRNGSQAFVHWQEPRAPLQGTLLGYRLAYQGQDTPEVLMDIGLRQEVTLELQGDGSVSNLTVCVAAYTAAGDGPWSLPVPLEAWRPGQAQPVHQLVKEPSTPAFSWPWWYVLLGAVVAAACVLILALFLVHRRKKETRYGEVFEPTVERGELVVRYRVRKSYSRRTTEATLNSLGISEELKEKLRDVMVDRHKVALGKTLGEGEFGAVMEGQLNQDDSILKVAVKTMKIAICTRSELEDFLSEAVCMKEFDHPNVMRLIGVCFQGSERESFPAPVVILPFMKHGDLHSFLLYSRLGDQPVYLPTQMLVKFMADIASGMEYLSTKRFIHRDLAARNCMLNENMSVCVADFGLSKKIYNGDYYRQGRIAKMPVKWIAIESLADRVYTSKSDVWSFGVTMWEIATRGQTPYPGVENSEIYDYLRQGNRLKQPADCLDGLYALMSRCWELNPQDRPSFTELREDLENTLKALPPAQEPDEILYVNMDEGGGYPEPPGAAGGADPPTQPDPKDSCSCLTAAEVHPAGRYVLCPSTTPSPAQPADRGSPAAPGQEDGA
Procedure: as §1

c-Kit = c-Kit (Homo sapiens, UniProt P10721); test: HotSpot Kinase Assay, c-Kit
Procedure: as §1

FMS = FMS (Homo sapiens, UniProt P07333); test: HotSpot Kinase Assay, FMS
Procedure: as §1

c-MET = c-MET (Homo sapiens, UniProt P08581); test: HotSpot Kinase Assay, c-MET
Procedure: as §1

TYRO3/SKY = molecular target: T3, TYRO3/SKY (Homo sapiens, UniProt Q06418); test: HotSpot Kinase Assay, TYRO3/SKY
T3 sequence (Q06418 41-890): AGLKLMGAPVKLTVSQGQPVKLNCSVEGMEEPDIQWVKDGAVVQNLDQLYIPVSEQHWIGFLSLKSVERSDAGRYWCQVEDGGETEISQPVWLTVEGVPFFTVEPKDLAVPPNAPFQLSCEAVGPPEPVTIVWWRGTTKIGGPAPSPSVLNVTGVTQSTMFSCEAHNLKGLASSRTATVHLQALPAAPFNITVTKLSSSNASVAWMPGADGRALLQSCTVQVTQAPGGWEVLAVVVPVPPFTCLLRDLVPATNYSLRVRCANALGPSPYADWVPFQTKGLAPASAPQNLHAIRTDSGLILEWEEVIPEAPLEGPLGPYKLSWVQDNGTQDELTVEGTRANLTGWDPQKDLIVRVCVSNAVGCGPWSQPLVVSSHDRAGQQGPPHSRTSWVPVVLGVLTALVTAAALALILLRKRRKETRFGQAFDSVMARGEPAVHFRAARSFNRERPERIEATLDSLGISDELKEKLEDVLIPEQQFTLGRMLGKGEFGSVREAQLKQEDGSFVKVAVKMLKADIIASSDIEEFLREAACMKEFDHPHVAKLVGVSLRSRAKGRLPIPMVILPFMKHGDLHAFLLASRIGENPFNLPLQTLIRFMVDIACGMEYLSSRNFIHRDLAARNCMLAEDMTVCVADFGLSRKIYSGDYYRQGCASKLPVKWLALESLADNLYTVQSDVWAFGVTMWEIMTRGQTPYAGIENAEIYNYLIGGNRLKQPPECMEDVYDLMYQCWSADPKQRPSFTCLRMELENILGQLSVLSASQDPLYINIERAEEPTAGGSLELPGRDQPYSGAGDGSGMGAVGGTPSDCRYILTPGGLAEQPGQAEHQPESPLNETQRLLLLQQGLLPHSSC
Procedure: as §1

KDR/VEGFR2 = KDR/VEGFR2 (Homo sapiens, UniProt P35968); test: HotSpot Kinase Assay, KDR/VEGFR2
Procedure: as §1

LOK/STK10 = LOK/STK10 (Homo sapiens, UniProt O94804); test: HotSpot Kinase Assay, LOK/STK10
EPHA2 = EPHA2 (Homo sapiens, UniProt P29317); test: HotSpot Kinase Assay, EPHA2
Procedure: as §1

Sequence of FMS (P07333 20-972): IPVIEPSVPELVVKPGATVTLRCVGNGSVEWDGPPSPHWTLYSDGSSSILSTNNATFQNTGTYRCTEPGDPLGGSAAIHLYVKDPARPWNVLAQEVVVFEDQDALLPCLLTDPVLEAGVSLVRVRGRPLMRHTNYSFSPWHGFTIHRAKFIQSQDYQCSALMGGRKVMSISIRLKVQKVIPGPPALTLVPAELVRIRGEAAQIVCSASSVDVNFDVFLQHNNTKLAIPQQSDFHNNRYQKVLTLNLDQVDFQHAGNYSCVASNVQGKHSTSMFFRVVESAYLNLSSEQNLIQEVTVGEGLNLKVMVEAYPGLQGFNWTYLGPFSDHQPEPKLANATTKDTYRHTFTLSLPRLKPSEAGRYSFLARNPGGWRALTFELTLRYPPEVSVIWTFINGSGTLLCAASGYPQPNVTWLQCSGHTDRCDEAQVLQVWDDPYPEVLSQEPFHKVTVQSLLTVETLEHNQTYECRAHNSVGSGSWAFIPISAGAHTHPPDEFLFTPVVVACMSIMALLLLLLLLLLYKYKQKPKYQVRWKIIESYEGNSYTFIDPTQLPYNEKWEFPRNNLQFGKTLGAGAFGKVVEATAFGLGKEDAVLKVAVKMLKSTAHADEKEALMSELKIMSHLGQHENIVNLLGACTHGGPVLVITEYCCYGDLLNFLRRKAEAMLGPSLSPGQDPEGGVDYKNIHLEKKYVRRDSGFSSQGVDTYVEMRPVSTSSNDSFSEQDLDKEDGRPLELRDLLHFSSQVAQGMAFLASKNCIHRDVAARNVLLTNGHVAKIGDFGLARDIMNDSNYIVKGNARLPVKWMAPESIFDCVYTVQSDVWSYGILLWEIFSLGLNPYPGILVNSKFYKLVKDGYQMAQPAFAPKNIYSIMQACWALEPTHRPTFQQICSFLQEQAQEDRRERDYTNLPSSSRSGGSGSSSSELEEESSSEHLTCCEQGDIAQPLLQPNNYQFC
Sequence of DDR1 (Q08345 19-913): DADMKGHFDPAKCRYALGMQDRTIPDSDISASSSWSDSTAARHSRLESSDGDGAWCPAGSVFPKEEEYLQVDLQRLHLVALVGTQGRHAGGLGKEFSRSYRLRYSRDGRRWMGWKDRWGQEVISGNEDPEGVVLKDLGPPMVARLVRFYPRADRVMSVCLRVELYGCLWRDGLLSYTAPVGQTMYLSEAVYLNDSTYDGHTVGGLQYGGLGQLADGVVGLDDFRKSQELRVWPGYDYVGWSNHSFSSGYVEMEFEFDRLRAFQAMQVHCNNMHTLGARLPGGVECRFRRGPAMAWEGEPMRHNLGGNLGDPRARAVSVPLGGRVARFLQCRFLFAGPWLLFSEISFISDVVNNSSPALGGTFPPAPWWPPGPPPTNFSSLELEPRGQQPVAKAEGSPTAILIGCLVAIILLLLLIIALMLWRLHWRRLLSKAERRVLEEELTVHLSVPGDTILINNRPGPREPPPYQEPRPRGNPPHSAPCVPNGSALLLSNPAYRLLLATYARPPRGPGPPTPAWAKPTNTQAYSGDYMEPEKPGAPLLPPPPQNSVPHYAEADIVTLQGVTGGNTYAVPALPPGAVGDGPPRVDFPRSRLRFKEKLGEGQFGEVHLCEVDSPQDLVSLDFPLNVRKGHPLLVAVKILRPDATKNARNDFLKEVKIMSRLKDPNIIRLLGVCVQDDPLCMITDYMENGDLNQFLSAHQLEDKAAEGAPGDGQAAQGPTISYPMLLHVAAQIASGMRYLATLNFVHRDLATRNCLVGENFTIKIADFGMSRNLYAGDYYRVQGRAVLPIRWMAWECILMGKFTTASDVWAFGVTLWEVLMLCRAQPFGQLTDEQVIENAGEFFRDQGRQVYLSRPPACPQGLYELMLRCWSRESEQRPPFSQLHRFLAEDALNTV
Sequence of KDR/VEGFR2 (P35968 20-1356): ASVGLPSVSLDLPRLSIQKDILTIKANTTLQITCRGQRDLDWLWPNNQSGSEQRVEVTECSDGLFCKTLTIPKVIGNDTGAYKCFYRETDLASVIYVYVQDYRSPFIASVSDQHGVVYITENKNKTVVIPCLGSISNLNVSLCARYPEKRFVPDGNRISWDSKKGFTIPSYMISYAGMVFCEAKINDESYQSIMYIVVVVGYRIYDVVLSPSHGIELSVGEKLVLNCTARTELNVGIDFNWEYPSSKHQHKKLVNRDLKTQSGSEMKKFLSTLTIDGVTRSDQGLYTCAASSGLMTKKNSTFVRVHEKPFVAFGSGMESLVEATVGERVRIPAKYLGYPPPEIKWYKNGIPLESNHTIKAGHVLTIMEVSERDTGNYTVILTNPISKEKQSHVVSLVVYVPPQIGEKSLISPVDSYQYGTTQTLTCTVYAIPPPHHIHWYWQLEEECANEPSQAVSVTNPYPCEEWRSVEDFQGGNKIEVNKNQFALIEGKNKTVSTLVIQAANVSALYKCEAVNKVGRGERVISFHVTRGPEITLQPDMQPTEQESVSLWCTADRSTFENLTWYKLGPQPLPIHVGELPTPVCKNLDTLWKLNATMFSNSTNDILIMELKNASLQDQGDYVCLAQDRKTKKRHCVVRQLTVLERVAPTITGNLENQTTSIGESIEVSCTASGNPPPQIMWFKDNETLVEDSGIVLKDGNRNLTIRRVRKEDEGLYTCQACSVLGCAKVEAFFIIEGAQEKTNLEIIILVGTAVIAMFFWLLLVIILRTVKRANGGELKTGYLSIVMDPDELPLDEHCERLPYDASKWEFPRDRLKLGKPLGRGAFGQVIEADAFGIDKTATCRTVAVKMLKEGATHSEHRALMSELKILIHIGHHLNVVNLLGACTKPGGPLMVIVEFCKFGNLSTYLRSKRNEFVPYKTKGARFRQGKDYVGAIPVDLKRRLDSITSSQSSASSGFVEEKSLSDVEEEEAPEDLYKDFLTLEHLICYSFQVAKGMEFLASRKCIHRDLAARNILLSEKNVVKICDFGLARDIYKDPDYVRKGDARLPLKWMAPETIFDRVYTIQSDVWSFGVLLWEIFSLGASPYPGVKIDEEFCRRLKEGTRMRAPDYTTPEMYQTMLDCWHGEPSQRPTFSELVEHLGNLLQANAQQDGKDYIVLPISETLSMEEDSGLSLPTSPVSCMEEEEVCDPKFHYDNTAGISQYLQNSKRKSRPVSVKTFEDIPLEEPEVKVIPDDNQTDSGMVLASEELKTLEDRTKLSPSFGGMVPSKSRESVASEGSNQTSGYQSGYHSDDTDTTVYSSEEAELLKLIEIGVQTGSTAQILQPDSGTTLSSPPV
Sequence of c-MET (P08581 25-1390): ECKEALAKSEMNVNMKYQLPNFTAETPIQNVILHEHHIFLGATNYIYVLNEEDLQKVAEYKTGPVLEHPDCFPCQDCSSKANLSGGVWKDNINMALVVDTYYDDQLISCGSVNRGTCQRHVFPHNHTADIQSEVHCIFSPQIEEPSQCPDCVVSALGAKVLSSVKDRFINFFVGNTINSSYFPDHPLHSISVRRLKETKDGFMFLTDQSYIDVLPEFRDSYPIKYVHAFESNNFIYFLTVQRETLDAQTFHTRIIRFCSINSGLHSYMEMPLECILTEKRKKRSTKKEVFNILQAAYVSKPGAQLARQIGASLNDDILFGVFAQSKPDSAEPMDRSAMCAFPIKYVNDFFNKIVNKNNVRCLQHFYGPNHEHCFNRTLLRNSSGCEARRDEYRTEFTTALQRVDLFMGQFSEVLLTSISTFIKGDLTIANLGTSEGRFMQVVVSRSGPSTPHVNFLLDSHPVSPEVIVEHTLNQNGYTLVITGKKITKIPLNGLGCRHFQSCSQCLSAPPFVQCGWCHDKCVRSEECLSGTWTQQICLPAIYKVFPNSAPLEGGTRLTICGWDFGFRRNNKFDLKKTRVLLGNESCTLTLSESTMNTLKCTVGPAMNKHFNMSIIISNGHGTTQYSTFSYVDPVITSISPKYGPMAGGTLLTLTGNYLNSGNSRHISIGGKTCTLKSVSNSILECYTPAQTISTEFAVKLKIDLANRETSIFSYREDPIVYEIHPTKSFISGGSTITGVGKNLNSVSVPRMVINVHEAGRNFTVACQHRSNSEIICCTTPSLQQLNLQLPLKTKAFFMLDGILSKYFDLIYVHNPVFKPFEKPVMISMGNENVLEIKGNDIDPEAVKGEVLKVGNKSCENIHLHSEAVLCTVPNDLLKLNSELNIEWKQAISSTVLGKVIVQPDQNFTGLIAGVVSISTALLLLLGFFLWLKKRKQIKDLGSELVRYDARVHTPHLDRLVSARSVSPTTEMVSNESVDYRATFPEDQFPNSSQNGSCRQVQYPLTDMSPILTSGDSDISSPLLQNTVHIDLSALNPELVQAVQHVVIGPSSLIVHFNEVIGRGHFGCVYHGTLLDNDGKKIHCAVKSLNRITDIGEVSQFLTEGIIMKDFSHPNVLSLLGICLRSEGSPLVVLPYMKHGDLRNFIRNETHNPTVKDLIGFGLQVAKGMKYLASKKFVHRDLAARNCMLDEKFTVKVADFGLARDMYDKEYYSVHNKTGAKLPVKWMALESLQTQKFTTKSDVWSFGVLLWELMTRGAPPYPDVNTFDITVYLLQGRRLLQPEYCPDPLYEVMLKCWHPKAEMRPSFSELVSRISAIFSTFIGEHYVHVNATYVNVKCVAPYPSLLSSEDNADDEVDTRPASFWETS

SMILES	IC50 (DDR1) [nM]	IC50 (c-MER) [nM]	IC50 (AXL) [nM]	IC50 (c-Kit) [nM]	IC50 (FMS) [nM]	IC50 (c-MET) [nM]	IC50 (TYRO3/SKY) [nM]	IC50 (KDR/VEGFR2) [nM]	IC50 (LOK/STK10) [nM]	IC50 (EPHA2) [nM]
COc1cc2c(Oc3ccc(NC(=O)C4(C(=O)Nc5ccc(F)cc5)CC4)cc3)ccnc2cc1OC(=O)N1CCN(C)C[C@H]1C [Compound 1-11, 4-(4-(1-((4-fluorophenyl)carbamoyl)cyclopropane-1-carboxamido)phenoxy)-6-methoxyquinolin-7-yl (R)-2,4-dimethylpiperazine-1-carboxylate]	< 100	< 100	< 100	< 100	< 100	< 100	100 to 1000	> 1000	100 to 1000	100 to 1000
COc1cc2c(Oc3ccc(NC(=O)C4(C(=O)Nc5ccc(F)cc5)CC4)cc3)ccnc2cc1OC(=O)N1CCN(C)C[C@@H]1C [Compound 1-12]	< 100	< 100	< 100	< 100	100 to 1000	< 100	100 to 1000	100 to 1000	100 to 1000	100 to 1000
COc1cc2c(Oc3ccc(NC(=O)C4(C(=O)Nc5ccc(F)cc5)CC4)cc3)ccnc2cc1OC(=O)N1CCC(F)(F)CC1 [Compound 1-13]	< 100	100 to 1000	100 to 1000	100 to 1000	> 1000	< 100	> 1000	> 1000	> 1000	> 1000
COc1cc2c(Oc3ccc(NC(=O)C4(C(=O)Nc5ccc(F)cc5)CC4)cc3)ccnc2cc1OC(=O)N1CCCC1 [Compound 1-14]	< 100	100 to 1000	100 to 1000	100 to 1000	> 1000	< 100	> 1000	> 1000	> 1000	> 1000
COc1cc2c(Oc3ccc(NC(=O)C4(C(=O)Nc5ccc(F)cc5)CC4)cc3)ccnc2cc1OC(=O)N(C)C [Compound 1-15]	< 100	100 to 1000	100 to 1000	100 to 1000	100 to 1000	100 to 1000	> 1000	> 1000	100 to 1000	> 1000
COc1cc2c(Oc3ccc(NC(=O)C4(C(=O)Nc5ccc(F)cc5)CC4)cc3)ccnc2cc1OC(=O)N1Cc2cn(S(C)(=O)=O)nc2C1 [Compound 1-16]	< 100	100 to 1000	100 to 1000	100 to 1000	> 1000	< 100	> 1000	> 1000	> 1000	> 1000
COc1cc2c(Oc3ccc(NC(=O)C4(C(=O)Nc5ccc(F)cc5)CC4)cc3)ccnc2cc1OC(=O)N1CCOCC1 [Compound 1-17]	< 100	< 100	100 to 1000	< 100	100 to 1000	< 100	> 1000	100 to 1000	100 to 1000	100 to 1000
COc1cc2c(Oc3ccc(NC(=O)C4(C(=O)Nc5ccc(F)cc5)CC4)cc3)ccnc2cc1OC(=O)N1CCN(C)[C@H](C)C1 [Compound 2-2]	< 100	< 100	< 100	< 100	< 100	< 100	100 to 1000	100 to 1000	100 to 1000	100 to 1000
COc1cc2c(Oc3ccc(NC(=O)C4(C(=O)Nc5ccc(F)cc5)CC4)cc3)ccnc2cc1OC(=O)N1CCN(C)[C@@H](C)C1 [Compound 2-3]	< 100	< 100	< 100	< 100	< 100	< 100	100 to 1000	100 to 1000	100 to 1000	100 to 1000
COc1cc2c(Oc3ccc(NC(=O)C4(C(=O)Nc5ccc(F)cc5)CC4)cc3)ccnc2cc1OC(=O)N1CC[C@@H](O)C1 [Compound 2-4]	< 100	< 100	< 100	< 100	100 to 1000	< 100	> 1000	> 1000	100 to 1000	100 to 1000
COc1cc2c(Oc3ccc(NC(=O)C4(C(=O)Nc5ccc(F)cc5)CC4)cc3)ccnc2cc1OC(=O)N1CC[C@H](O)C1 [Compound 2-5]	< 100	< 100	< 100	< 100	100 to 1000	< 100	> 1000	> 1000	100 to 1000	100 to 1000
COc1cc2c(Oc3ccc(NC(=O)C4(C(=O)Nc5ccc(F)cc5)CC4)cc3)ccnc2cc1OC(=O)N1C[C@H]2C[C@@H]1CN2C [Compound 2-6]	< 100	< 100	< 100	< 100	< 100	< 100	100 to 1000	100 to 1000	100 to 1000	< 100
